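Exposure lasted 48 hours, with cells grown in 96-well plates and compounds tested at five concentrations. The concentration for 50% growth inhibition is given as GI50.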 The source made the active and inactive calls. Cut-off read from the data, not from the text of the source: active = GI50 up to about 1.1 µM and inactive = higher.
Tests used:
Assay in all cases: NCI anticancer screen, dose series, 48 h
ACHN = system: ACHN
IGROV-1 = system: IGROV-1
HCT-116 = system: HCT-116
786-0 = system: 786-0
OVCAR-4 = system: OVCAR-4
U-251 = system: U-251
SF-268 = system: SF-268
UACC-62 = system: UACC-62
OVCAR-5 = system: OVCAR-5
EKVX = system: EKVX
OVCAR-8 = system: OVCAR-8
CAKI-1 = system: CAKI-1
CCRF-CEM = system: CCRF-CEM
SNB-75 = system: SNB-75
RXF 393 = system: RXF 393
Malme-3M = system: Malme-3M
A498 = system: A498

Measured: GI50

CC(C)(C)c1cc(CCC(=O)Nc2ccc(Cl)cc2)nc(NC#N)n1
inactive: ACHN > 100 µM | IGROV-1 > 100 µM | HCT-116 > 100 µM | 786-0 > 100 µM | OVCAR-4 > 100 µM | U-251 > 100 µM | SF-268 > 100 µM | UACC-62 > 100 µM | OVCAR-5 > 100 µM | EKVX > 100 µM | OVCAR-8 > 100 µM | CAKI-1 > 100 µM | CCRF-CEM > 100 µM

CCCCCCCCCc1cc(=O)c2c(O)cccc2o1
inactive: ACHN 42.7 µM | SNB-75 > 10 µM | IGROV-1 79.6 µM | HCT-116 30.3 µM | RXF 393 53 µM | 786-0 51.4 µM | OVCAR-4 50.7 µM | U-251 48.1 µM | SF-268 31.8 µM | UACC-62 58.2 µM | OVCAR-5 38.8 µM | EKVX 51.8 µM | OVCAR-8 38.7 µM | Malme-3M 19.3 µM | CAKI-1 69.3 µM | CCRF-CEM 30.8 µM

C[N+](C)(C)CC(=O)N/N=C/c1oc(-c2cccc([N+](=O)[O-])c2)c(-c2cccc([N+](=O)[O-])c2)c1[N+](=O)[O-]
inactive: ACHN > 100 µM | IGROV-1 95.5 µM | HCT-116 32.7 µM | RXF 393 76.9 µM | 786-0 48.1 µM | OVCAR-4 > 100 µM | SF-268 > 100 µM | UACC-62 29.5 µM | OVCAR-5 > 100 µM | EKVX > 100 µM | OVCAR-8 70.8 µM | Malme-3M > 100 µM | CCRF-CEM 35.2 µM | A498 > 100 µM

COC(=O)Cc1cc(OC)c(OC)cc1Br
inactive: ACHN > 100 µM | SNB-75 66.4 µM | HCT-116 > 100 µM | 786-0 > 100 µM | OVCAR-4 > 100 µM | U-251 > 100 µM | SF-268 > 100 µM | UACC-62 > 100 µM | OVCAR-5 > 100 µM | EKVX > 100 µM | OVCAR-8 > 100 µM | Malme-3M > 100 µM | CAKI-1 > 100 µM | CCRF-CEM > 100 µM | A498 > 100 µM

CC(=O)Nc1ccc(Cl)c(Cl)c1
inactive: ACHN > 100 µM | SNB-75 > 100 µM | IGROV-1 > 100 µM | HCT-116 > 100 µM | RXF 393 > 100 µM | 786-0 > 100 µM | U-251 > 100 µM | SF-268 > 100 µM | UACC-62 > 100 µM | EKVX > 100 µM | OVCAR-8 > 100 µM | Malme-3M > 100 µM | CCRF-CEM > 100 µM

CCP(C)(C)=O
inactive: ACHN > 100 µM | SNB-75 > 100 µM | IGROV-1 > 100 µM | RXF 393 > 100 µM | 786-0 > 100 µM | OVCAR-4 > 100 µM | U-251 > 100 µM | SF-268 > 100 µM | UACC-62 > 100 µM | OVCAR-5 > 100 µM | EKVX > 100 µM | OVCAR-8 > 100 µM | Malme-3M > 100 µM | CAKI-1 > 100 µM | CCRF-CEM > 100 µM | A498 > 100 µM

O=C1C=C(Nc2ccc(Br)cc2)c2ccccc2C1=O
inactive: ACHN 4.75 µM | SNB-75 11 µM | IGROV-1 14.8 µM | HCT-116 13.6 µM | RXF 393 16.7 µM | 786-0 14.6 µM | OVCAR-4 2.09 µM | U-251 4 µM | SF-268 13.5 µM | UACC-62 4.39 µM | OVCAR-5 20.8 µM | EKVX 18.5 µM | OVCAR-8 12.5 µM | Malme-3M 15.1 µM | CCRF-CEM 11 µM | A498 17.2 µM

CC(C)N(C(=O)C12C3C4C1C1C2C3C41C(=O)O)C(C)C (stereo not drawn)
inactive: ACHN > 100 µM | SNB-75 > 100 µM | IGROV-1 > 100 µM | HCT-116 > 100 µM | 786-0 > 100 µM | OVCAR-4 > 100 µM | SF-268 > 100 µM | UACC-62 > 100 µM | OVCAR-5 > 100 µM | EKVX > 100 µM | OVCAR-8 > 100 µM | Malme-3M > 100 µM | CAKI-1 > 100 µM | CCRF-CEM > 100 µM | A498 > 100 µM

CCOC(=O)Nc1cc2nnc(-c3ccccc3)nc2c(N)n1
inactive: ACHN 5.7 µM | SNB-75 14.9 µM | IGROV-1 13.9 µM | HCT-116 10.9 µM | RXF 393 18 µM | 786-0 10.4 µM | OVCAR-4 14.9 µM | U-251 30.5 µM | SF-268 29.2 µM | UACC-62 9.35 µM | OVCAR-5 23.1 µM | EKVX 43.7 µM | OVCAR-8 23.6 µM | Malme-3M 4.8 µM | CAKI-1 27.6 µM | CCRF-CEM 32.1 µM

O=c1[c-](-c2ccccc2)[se]c(-c2ccccc2)[n+]1-c1ccccc1
inactive: SNB-75 8.15 µM | IGROV-1 3.71 µM | HCT-116 3.51 µM | RXF 393 3.18 µM | 786-0 10.5 µM | OVCAR-4 2.35 µM | SF-268 5.55 µM | UACC-62 13 µM | EKVX 13.5 µM | OVCAR-8 3.8 µM | Malme-3M 15.5 µM | CAKI-1 19.1 µM | CCRF-CEM 3.87 µM | A498 10 µM

O=C(O)/C(=C/c1ccccc1[N+](=O)[O-])c1ccccc1
inactive: ACHN > 100 µM | SNB-75 > 100 µM | IGROV-1 > 100 µM | HCT-116 > 100 µM | 786-0 > 100 µM | OVCAR-4 > 100 µM | U-251 > 100 µM | SF-268 > 100 µM | UACC-62 > 100 µM | OVCAR-5 > 100 µM | EKVX > 100 µM | OVCAR-8 > 100 µM | CAKI-1 > 100 µM | A498 > 100 µM

NC1=NS(=O)(=O)Nc2[nH]c(-c3ccccc3)nc21
inactive: ACHN > 100 µM | SNB-75 > 100 µM | IGROV-1 > 100 µM | HCT-116 > 100 µM | RXF 393 > 100 µM | 786-0 > 100 µM | OVCAR-4 > 100 µM | U-251 > 100 µM | SF-268 > 100 µM | UACC-62 > 100 µM | OVCAR-5 > 100 µM | EKVX > 100 µM | OVCAR-8 > 100 µM | Malme-3M > 100 µM | CCRF-CEM > 100 µM

N#CCc1ccc(/C(C#N)=C2/OC(=N)C(c3ccc(CC#N)cc3)C2=O)cc1 (stereo not drawn)
inactive: ACHN > 100 µM | SNB-75 > 100 µM | IGROV-1 > 100 µM | HCT-116 > 100 µM | RXF 393 > 100 µM | 786-0 > 100 µM | OVCAR-4 > 100 µM | SF-268 > 100 µM | UACC-62 > 100 µM | OVCAR-5 > 100 µM | EKVX > 100 µM | OVCAR-8 > 100 µM | Malme-3M > 100 µM | CAKI-1 > 100 µM | CCRF-CEM > 100 µM | A498 > 100 µM

— ChEMBL document CHEMBL1201862, “PubChem BioAssay data set” (2004)
